Usually IC50 stands for the midpoint of a concentration-inhibition curve.

In patent US12060347B2 (BRISTOL-MYERS SQUIBB COMPANY, priority 2016, dated 2024) one finds IC50 data, which are given here for 25 molecules.

For this test, the target named is T1, human PAR4 (Homo sapiens, UniProt Q96RI0).
T1 construct: expressed in transfected cells; host or cells: HEK293 PAR4 Clone 1.2A (BMS Arctic ID 383940)
T1 sequence (Q96RI0 18-385): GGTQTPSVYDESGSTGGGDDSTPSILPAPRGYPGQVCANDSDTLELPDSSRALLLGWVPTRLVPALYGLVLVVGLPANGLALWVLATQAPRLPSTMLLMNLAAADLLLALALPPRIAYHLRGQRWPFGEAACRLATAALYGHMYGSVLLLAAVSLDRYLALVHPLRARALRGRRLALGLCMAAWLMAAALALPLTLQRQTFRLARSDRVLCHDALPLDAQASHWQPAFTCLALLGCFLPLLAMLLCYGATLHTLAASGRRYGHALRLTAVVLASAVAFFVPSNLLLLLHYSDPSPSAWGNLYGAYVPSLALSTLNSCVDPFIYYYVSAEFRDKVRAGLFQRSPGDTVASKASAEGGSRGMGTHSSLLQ
Description: PAR4 FLIPR assay: antagonism of agonist-peptide-induced calcium mobilization in PAR4-expressing HEK293 cells. The format is cell-based. Conditions: H-Ala-Phe(4-F)-[…]NH2-induced intracellular calcium mobilization, 11-point curves. A general note: Calcium flux is commonly read through the fluorescence of an indicator in the cells.

SMILES strings stand for the structures.

For `CCOc1cnc2c(-c3nc4cc(F)c(OC[C@@H](C)OC(=O)Nc5cnc(C)nc5)nc4s3)cc(C)cc2n1` [Example 813, (R)-1-((2-(2-ethoxy-7-methylquinoxalin-5-yl)-6-fluorothiazolo[5,4-b]pyridin-5-yl)oxy)propan-2-yl (2-methylpyrimidin-5-yl)carbamate], the IC50 is 1 nM.
As to `CCOc1cnc2c(-c3nc4cc(F)c(OC[C@@H](C)OC(=O)Nc5cnc(OCCO)nc5)nc4s3)cc(C)cc2n1` [Example 814, (R)-1-((2-(2-ethoxy-7-methylquinoxalin-5-yl)-6-fluorothiazolo[5,4-b]pyridin-5-yl)oxy)propan-2-yl (2-(2-hydroxyethoxy)pyrimidin-5-yl)carbamate], the IC50 was 7.2 nM.
As for `CCOc1cnc2c(-c3nc4cc(F)c(OC[C@@H](C)OC(=O)Nc5cnc(OC[C@@H](C)O)nc5)nc4s3)cc(C)cc2n1` [Example 815, (R)-1-((2-(2-ethoxy-7-methylquinoxalin-5-yl)-6-fluorothiazolo[5,4-b]pyridin-5-yl)oxy) propan-2-yl (2-((R)-2-hydroxypropoxy)pyrimidin-5-yl)carbamate], the figure is 6.4 nM; as for `CCOc1cnc2c(-c3nc4cc(F)c(O[C@@H](C)[C@@H](C)OC(=O)Nc5cnc(CO)nc5)nc4s3)cc(C)cc2n1` [Example 816], 10 nM; as for `CCOc1cnc2c(-c3nc4c(C(O)C(C)(C)C)cc(OC)cc4s3)cc(C)cc2n1` (stereo not shown) [Example 817, 1-(2-(2-ethoxy-7-methylquinoxalin-5-yl)-6-methoxybenzo[d]thiazol-4-yl)-2,2-dimethylpropan-1-ol], 3.6 nM.
As for `COc1cnc2c(-c3nc4cc(F)c(OC[C@@H](C)OC(=O)Nc5ccc(C#N)nc5)cc4s3)cc(C#N)cc2n1` [Example 818, (R)-1-((2-(7-cyano-2-methoxyquinoxalin-5-yl)-5-fluorobenzo[d]thiazol-6-yl)oxy)propan-2-yl (6-cyanopyridin-3-yl)carbamate], the figure is 1.8 nM; as for `COc1cnc2c(-c3nc4cc(F)c(OC[C@@H](C)OC(=O)Nc5cnc(C)nc5)cc4s3)cc(C#N)cc2n1` [Example 819, (R)-1-((2-(7-cyano-2-methoxyquinoxalin-5-yl)-5-fluorobenzo[d]thiazol-6-yl)oxy)propan-2-yl (2-methylpyrimidin-5-yl)carbamate], 1.2 nM.
Consider `COc1cnc2c(-c3nc4cc(F)c(O[C@@H](C)[C@@H](C)OC(=O)Nc5cnc(OC)nc5)cc4s3)cc(Cl)cc2n1` [Example 820, (2R,3S)-3-((2-(7-chloro-2-methoxyquinoxalin-5-yl)-5-fluorobenzo[d]thiazol-6-yl)oxy)butan-2-yl (2-methoxypyrimidin-5-yl)carbamate], for which the IC50 worked out at 1.7 nM.
The result for `COc1ccc(NC(=O)O[C@H](C)[C@H](C)Oc2cc3sc(-c4cc(Cl)cc5nc(OC)cnc45)nc3cc2F)cn1` [Example 821, (2R,3S)-3-((2-(7-chloro-2-methoxyquinoxalin-5-yl)-5-fluorobenzo[d]thiazol-6-yl)oxy)butan-2-yl (6-methoxypyridin-3-yl)carbamate] reads 4.6 nM; that for `COc1cnc2c(-c3nc4cc(F)c(O[C@@H](C)[C@@H](C)OC(=O)Nc5ccc(C)nc5)cc4s3)cc(Cl)cc2n1` [Example 822, (2R,3S)-3-((2-(7-chloro-2-methoxyquinoxalin-5-yl)-5-fluorobenzo[d]thiazol-6-yl)oxy)butan-2-yl (6-methylpyridin-3-yl)carbamate], 1.6 nM.
The result for `COc1cnc2c(-c3nc4cc(F)c(O[C@@H](C)[C@@H](C)OC(=O)Nc5ccc(C)nc5)cc4s3)cc(C#N)cc2n1` [Example 823, (2R,3S)-3-((2-(7-cyano-2-methoxyquinoxalin-5-yl)-5-fluorobenzo[d]thiazol-6-yl)oxy)butan-2-yl (6-methylpyridin-3-yl)carbamate] reads 5.1 nM; that for `COc1cnc2c(-c3nc4cc(F)c(O[C@@H](C)[C@@H](C)OC(=O)Nc5cnc(C)nc5)cc4s3)cc(Cl)cc2n1` [Example 824, (2R,3S)-3-((2-(7-chloro-2-methoxyquinoxalin-5-yl)-5-fluorobenzo[d]thiazol-6-yl)oxy)butan-2-yl (2-methylpyrimidin-5-yl)carbamate], 1.5 nM.
As for `COc1cnc2c(-c3nc4cc(F)c(O[C@@H](C)[C@@H](C)OC(=O)Nc5cnc(C)nc5)cc4s3)cc(C#N)cc2n1` [Example 825, (2R,3S)-3-((2-(7-cyano-2-methoxyquinoxalin-5-yl)-5-fluorobenzo[d]thiazol-6-yl)oxy)butan-2-yl (2-methylpyrimidin-5-yl)carbamate], the figure is 8 nM; as for `COc1cnc2c(-c3nc4cc(F)c(O[C@@H](C)[C@@H](C)OC(=O)Nc5cncc(C#N)c5)cc4s3)cc(Cl)cc2n1` [Example 826, (2R,3S)-3-((2-(7-chloro-2-methoxyquinoxalin-5-yl)-5-fluorobenzo[d]thiazol-6-yl)oxy)butan-2-yl (5-cyanopyridin-3-yl)carbamate], 1.9 nM.
Take `Cc1cc(-c2nc3cc(F)c(O[C@@H](C)[C@@H](C)OC(=O)Nc4cnc(C)nc4)cc3s2)c2ncc(OCC(F)F)nc2c1` [Example 827, (2R,3S)-3-((2-(2-(2,2-difluoroethoxy)-7-methylquinoxalin-5-yl)-5-fluorobenzo[d]thiazol-6-yl)oxy)butan-2-yl (2-methylpyrimidin-5-yl)carbamate]: the IC50 came out at 6.2 nM.
As to `COc1cnc2c(-c3nc4cc(F)c(O[C@@H](C)[C@@H](C)OC(=O)Nc5ccc(C#N)nc5)cc4s3)cc(C#N)cc2n1` [Example 828, (2R,3S)-3-((2-(7-cyano-2-methoxyquinoxalin-5-yl)-5-fluorobenzo[d]thiazol-6-yl)oxy)butan-2-yl (6-cyanopyridin-3-yl)carbamate], the IC50 amounted to 0.7 nM.
The result for `COc1cnc2c(-c3nc4cc(F)c(O[C@@H](C)[C@@H](C)OC(=O)Nc5ccc(C#N)nc5)cc4s3)cc(Cl)cc2n1` [Example 829, (2R,3S)-3-((2-(7-chloro-2-methoxyquinoxalin-5-yl)-5-fluorobenzo[d]thiazol-6-yl)oxy)butan-2-yl (6-cyanopyridin-3-yl)carbamate] reads 0.6 nM; that for `COC(=O)c1ccc(NC(=O)O[C@H](C)[C@H](C)Oc2cc3sc(-c4cc(Cl)cc5nc(OC)cnc45)nc3cc2F)cn1` [Example 830, methyl 5-(((((2R,3S)-3-((2-(7-chloro-2-methoxyquinoxalin-5-yl)-5-fluorobenzo[d]thiazol-6-yl)oxy)butan-2-yl)oxy)carbonyl)amino)picolinate], 1.6 nM; that for `COc1cnc2c(-c3nc4cc(F)c(O[C@@H](C)[C@@H](C)OC(=O)Nc5ccc(CO)nc5)cc4s3)cc(Cl)cc2n1` [Example 831, (2R,3S)-3-((2-(7-chloro-2-methoxyquinoxalin-5-yl)-5-fluorobenzo[d]thiazol-6-yl)oxy)butan-2-yl (6-(hydroxymethyl)pyridin-3-yl)carbamate], 2.2 nM.
As for `CNC(=O)c1ccc(NC(=O)O[C@H](C)[C@H](C)Oc2cc3sc(-c4cc(Cl)cc5nc(OC)cnc45)nc3cc2F)cn1` [Example 832, (2R,3S)-3-((2-(7-chloro-2-methoxyquinoxalin-5-yl)-5-fluorobenzo[d]thiazol-6-yl)oxy)butan-2-yl (6-(methylcarbamoyl)pyridin-3-yl)carbamate], the figure is 2.5 nM.
The result for `COc1cnc2c(-c3nc4cc(F)c(O[C@@H](C)[C@@H](C)OC(=O)Nc5ccc(C(N)=O)nc5)cc4s3)cc(Cl)cc2n1` [Example 833, (2R,3S)-3-((2-(7-chloro-2-methoxyquinoxalin-5-yl)-5-fluorobenzo[d]thiazol-6-yl)oxy) butan-2-yl (6-carbamoylpyridin-3-yl)carbamate] reads 1.6 nM.
Turning to `COc1cnc2c(-c3nc4cc(F)c(O[C@@H](C)[C@@H](C)OC(=O)Nc5ccc(C(=O)N(C)C)nc5)cc4s3)cc(Cl)cc2n1` [Example 834, (2R,3S)-3-((2-(7-chloro-2-methoxyquinoxalin-5-yl)-5-fluorobenzo[d]thiazol-6-yl)oxy)butan-2-yl (6-(dimethylcarbamoyl)pyridin-3-yl)carbamate], the IC50 was 3 nM.
As for `COc1cnc2c(-c3nc4cc(F)c(O[C@@H](C)[C@@H](C)OC(=O)Nc5ccc(CC(C)(C)O)nc5)cc4s3)cc(Cl)cc2n1` [Example 835, (2R,3S)-3-((2-(7-chloro-2-methoxyquinoxalin-5-yl)-5-fluorobenzo[d]thiazol-6-yl)oxy)butan-2-yl (6-(2-hydroxy-2-methylpropyl)pyridin-3-yl)carbamate], the figure is 0.5 nM; as for `COc1cnc2c(-c3nc4cc(F)c(O[C@@H](C)[C@@H](C)OC(=O)Nc5ccc(CCO)nc5)cc4s3)cc(Cl)cc2n1` [Example 836, (2R,3S)-3-((2-(7-chloro-2-methoxyquinoxalin-5-yl)-5-fluorobenzo[d]thiazol-6-yl)oxy)butan-2-yl (6-(2-hydroxyethyl)pyridin-3-yl)carbamate], 1.2 nM.
As to `COc1cc(C)c2nc(-c3cc(Cl)cc4nc(OC)cnc34)sc2c1` [Example 837, 2-(7-chloro-2-methoxyquinoxalin-5-yl)-6-methoxy-4-methylbenzo[d]thiazole], the IC50 was found to be 17 nM.
